Key:
Type in all cases: biochemical
FAAH [1] = molecular target: FAAH (Mus musculus (Mouse), UniProt O08914); assay: In vitro competitive activity-based protein profiling, FAAH (mouse); details: 1 μM, read-out: FAAH % inh. 1 μM (mouse)
In short: (§1)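 Residual MAGL and FAAH activity quantified from fluorescent gel bands after SDS-PAGE. Before that, FP-Rh or HT-01 probe (50 μM stock) labelled for 30 min at 37 °C, following 30 min inhibitor preincubation. Mouse assays used brain membrane fraction or cell lysates, human used prefrontal cortex or cell membranes, all at 1.0 mg/mL protein.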

FAAH [2] = molecular target: FAAH (Homo sapiens (Human), UniProt O00519); assay: In vitro competitive activity-based protein profiling, FAAH (human); details: human proteome; for inhibition at 10 µM: read-out: FAAH % inh. 10 μM (human)
FAAH (Homo sapiens (Human), UniProt O00519), sequence (O00519 whole entry): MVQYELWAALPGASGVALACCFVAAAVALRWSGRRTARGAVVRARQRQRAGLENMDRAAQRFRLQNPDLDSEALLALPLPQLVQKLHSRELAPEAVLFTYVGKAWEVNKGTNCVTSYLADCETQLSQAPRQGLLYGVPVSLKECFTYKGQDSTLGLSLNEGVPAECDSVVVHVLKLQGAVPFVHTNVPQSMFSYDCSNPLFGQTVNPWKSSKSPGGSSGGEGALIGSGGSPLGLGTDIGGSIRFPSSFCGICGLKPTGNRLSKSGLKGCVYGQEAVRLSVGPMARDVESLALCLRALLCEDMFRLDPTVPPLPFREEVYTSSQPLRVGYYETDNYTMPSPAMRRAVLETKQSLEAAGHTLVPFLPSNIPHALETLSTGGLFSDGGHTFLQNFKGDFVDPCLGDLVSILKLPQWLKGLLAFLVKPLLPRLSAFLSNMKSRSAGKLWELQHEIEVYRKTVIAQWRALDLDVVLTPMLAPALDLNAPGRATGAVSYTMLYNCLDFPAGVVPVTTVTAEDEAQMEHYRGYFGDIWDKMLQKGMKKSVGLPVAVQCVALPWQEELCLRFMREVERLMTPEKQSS
Procedure: (§2) In Vitro Competitive Activity-Based Protein Profiling.
(§3) Proteomes (mouse brain membrane fraction or cell lysates for mouse assays; human prefrontal cortex or cell membrane fractions for human assays) (50 μL, 1.0 mg/mL total protein concentration) were preincubated with varying concentrations of inhibitors at 37° C. After 30 min, FP—Rh or HT-01 (1.0 μL, 50 μM in DMSO) was added and the mixture was incubated for another 30 min at 37° C. Reactions were quenched with SDS loading buffer (15 μL-4×) and run on SDS-PAGE. Following gel imaging, serine hydrolase activity was determined by measuring fluorescent intensity of gel bands corresponding to MAGL and FAAH using ImageJ 1.43u software.

MAGL [3] = molecular target: MAGL (Mus musculus (Mouse), UniProt O35678); assay: In vitro competitive activity-based protein profiling, MAGL (mouse); details: 1 μM, read-out: MAGL % inh. 1 μM (mouse)
MAGL (Mus musculus (Mouse), UniProt O35678), sequence (O35678 whole entry): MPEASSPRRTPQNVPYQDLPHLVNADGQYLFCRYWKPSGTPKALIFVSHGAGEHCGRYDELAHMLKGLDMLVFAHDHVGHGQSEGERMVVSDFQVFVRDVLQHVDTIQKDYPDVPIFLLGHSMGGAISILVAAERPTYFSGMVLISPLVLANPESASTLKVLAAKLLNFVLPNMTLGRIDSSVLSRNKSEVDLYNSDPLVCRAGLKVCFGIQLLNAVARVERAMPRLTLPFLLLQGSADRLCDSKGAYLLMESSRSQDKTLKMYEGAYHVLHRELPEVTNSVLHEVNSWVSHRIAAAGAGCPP
In short: as §1

MAGL [4] = molecular target: MAGL (Homo sapiens (Human), UniProt Q99685); assay: In vitro competitive activity-based protein profiling, MAGL (human); details: human proteome; for inhibition at 10 µM: read-out: MAGL % inh. 10 μM (human)
MAGL (Homo sapiens (Human), UniProt Q99685), sequence (Q99685 whole entry): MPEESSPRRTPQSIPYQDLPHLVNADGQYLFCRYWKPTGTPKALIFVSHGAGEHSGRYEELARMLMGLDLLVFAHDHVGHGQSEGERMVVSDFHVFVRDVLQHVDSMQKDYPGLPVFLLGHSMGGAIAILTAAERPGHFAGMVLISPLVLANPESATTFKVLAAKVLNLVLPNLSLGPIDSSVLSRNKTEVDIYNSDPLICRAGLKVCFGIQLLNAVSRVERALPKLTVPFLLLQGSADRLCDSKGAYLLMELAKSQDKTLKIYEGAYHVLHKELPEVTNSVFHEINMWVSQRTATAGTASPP
Procedure: as §2, §3

FAAH (Mus musculus (Mouse), UniProt O08914), sequence (O08914 whole entry): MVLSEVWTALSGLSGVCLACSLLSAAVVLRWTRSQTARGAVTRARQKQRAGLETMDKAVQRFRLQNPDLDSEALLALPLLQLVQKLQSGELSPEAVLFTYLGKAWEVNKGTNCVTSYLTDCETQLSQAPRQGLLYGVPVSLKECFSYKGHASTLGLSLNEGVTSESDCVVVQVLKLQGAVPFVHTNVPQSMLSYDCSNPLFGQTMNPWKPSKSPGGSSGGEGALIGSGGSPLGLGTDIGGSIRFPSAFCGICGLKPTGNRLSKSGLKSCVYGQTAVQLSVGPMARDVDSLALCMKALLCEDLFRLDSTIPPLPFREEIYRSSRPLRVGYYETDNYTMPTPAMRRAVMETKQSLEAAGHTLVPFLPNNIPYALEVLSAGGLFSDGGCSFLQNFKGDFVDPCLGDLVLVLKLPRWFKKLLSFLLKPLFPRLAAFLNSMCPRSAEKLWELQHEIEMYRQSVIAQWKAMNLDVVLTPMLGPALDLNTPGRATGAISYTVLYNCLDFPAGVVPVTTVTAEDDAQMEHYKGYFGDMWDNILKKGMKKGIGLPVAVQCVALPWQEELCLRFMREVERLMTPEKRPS

| inhibition at 1 µM (FAAH [1]) | inhibition at 10 µM (FAAH [2]) | inhibition at 1 µM (MAGL [3]) | inhibition at 10 µM (MAGL [4]) | inhibition at 1 µM (FAAH [2]; 1 μM, read-out: FAAH % inh. 1 μM (human)) | inhibition at 1 µM (MAGL [4]; 1 μM, read-out: MAGL % inh. 1 μM (human)) | Compound |
| --- | --- | --- | --- | --- | --- | --- |
| 25 to 50% | ≥ 75% | 0 to 25% | 0 to 25% | – | – | CC(=O)N(C)c1cnn(C(=O)N2CC3(CCN(Cc4ccc(N5CCOCC5)cc4)CC3)C2)c1 [Example 21, N-methyl-N-(1-(7-(4-morpholinobenzyl)-2,7-diazaspiro[3.5]nonane-2-carbonyl)-1H-pyrazol-4-yl)acetamide] |
| 25 to 50% | ≥ 75% | 0 to 25% | ≥ 75% | – | – | CC(=O)N(C)c1cnn(C(=O)N2CC3CN(Cc4ccc(N5CCOCC5)cc4)CC3C2)c1 (stereo not shown) [Example 15, N-methyl-N-(1-(5-(4-morpholinobenzyl)octahydropyrrolo[3,4-c]pyrrole-2-carbonyl)-1H-pyrazol-4-yl)acetamide] |
| 50 to 75% | ≥ 75% | 0 to 25% | ≥ 75% | – | – | CC(=O)N(C)c1cnn(C(=O)N2CCC3(CCN(Cc4ccc(N5CCOCC5)cc4C)C3)C2)c1 (stereo not shown) [Example 5, N-methyl-N-(1-(7-(2-methyl-4-morpholinobenzyl)-2,7-diazaspiro[4.4]nonane-2-carbonyl)-1H-pyrazol-4-yl)acetamide] |
| ≥ 75% | ≥ 75% | 0 to 25% | ≥ 75% | – | – | CC(=O)N(C)c1cnn(C(=O)N2CCC3(CCN(Cc4ccccc4F)C3)C2)c1 (stereo not shown) [Example 52, N-(1-(7-(2-fluorobenzyl)-2,7-diazaspiro[4.4]nonane-2-carbonyl)-1H-pyrazol-4-yl)-N-methylacetamide] |
| 50 to 75% | ≥ 75% | 0 to 25% | ≥ 75% | – | – | CC(=O)N(C)c1cnn(C(=O)N2CCC3(CCN(Cc4cccc(C)c4)C3)C2)c1 (stereo not shown) [Example 80, N-methyl-N-(1-(7-(3-methylbenzyl)-2,7-diazaspiro[4.4]nonane-2-carbonyl)-1H-pyrazol-4-yl)acetamide] |
| ≥ 75% | 50 to 75% | 0 to 25% | ≥ 75% | – | – | CC(=O)N(C)c1cnn(C(=O)N2CC3(CCN(Cc4ccc(-c5ccccc5)cc4C)CC3)C2)c1 [Example 222, N-methyl-N-(1-(7-((3-methyl-[1,1′-biphenyl]-4-yl)methyl)-2,7-diazaspiro[3.5]nonane-2-carbonyl)-1H-pyrazol-4-yl)acetamide] |
| ≥ 75% | ≥ 75% | 0 to 25% | 25 to 50% | – | – | CC(=O)N(C)c1cnn(C(=O)N2CC3(CCN(Cc4ccccc4C(F)(F)F)CC3)C2)c1 [Example 90, N-methyl-N-(1-(7-(2-(trifluoromethyl)benzyl)-2,7-diazaspiro[3.5]nonane-2-carbonyl)-1H-pyrazol-4-yl)acetamide] |
| 25 to 50% | ≥ 75% | 0 to 25% | ≥ 75% | – | – | CC(=O)N(C)c1cnn(C(=O)N2CCC3(CCN(Cc4cccc(N5CCOCC5)c4)C3)C2)c1 (stereo not shown) [Example 48, N-methyl-N-(1-(7-(3-morpholinobenzyl)-2,7-diazaspiro[4.4]nonane-2-carbonyl)-1H-pyrazol-4-yl)acetamide] |
| 50 to 75% | ≥ 75% | 0 to 25% | ≥ 75% | – | – | CC(=O)N(C)c1cnn(C(=O)N2CCC3(CCN(Cc4ccc(F)cc4)C3)C2)c1 (stereo not shown) [Example 75, N-(1-(7-(4-fluorobenzyl)-2,7-diazaspiro[4.4]nonane-2-carbonyl)-1H-pyrazol-4-yl)-N-methylacetamide] |
| 25 to 50% | ≥ 75% | 0 to 25% | ≥ 75% | – | – | COc1ccc(CN2CCC3(CCN(C(=O)n4cc(N(C)C(C)=O)cn4)C3)C2)cc1 (stereo not shown) [Example 77, N-(1-(7-(4-methoxybenzyl)-2,7-diazaspiro[4.4]nonane-2-carbonyl)-1H-pyrazol-4-yl)-N-methylacetamide] |
| 25 to 50% | ≥ 75% | 0 to 25% | ≥ 75% | – | – | CC(=O)N(C)c1cnn(C(=O)N2CC3CN(Cc4ccc(CN5CCOCC5)cc4)CC3C2)c1 (stereo not shown) [Example 225, N-methyl-N-(1-(5-(4-(morpholinomethyl)benzyl)octahydropyrrolo[3,4-c]pyrrole-2-carbonyl)-1H-pyrazol-4-yl)acetamide] |
| ≥ 75% | ≥ 75% | 0 to 25% | ≥ 75% | – | – | CC(=O)N(C)c1cnn(C(=O)N2CCC3(CCN(Cc4ccccc4C)C3)C2)c1 (stereo not shown) [Example 54, N-methyl-N-(1-(7-(2-methylbenzyl)-2,7-diazaspiro[4.4]nonane-2-carbonyl)-1H-pyrazol-4-yl)acetamide] |
| ≥ 75% | ≥ 75% | 0 to 25% | ≥ 75% | – | – | COc1ccccc1CN1CC2CN(C(=O)n3cc(N(C)C(C)=O)cn3)CC2C1 (stereo not shown) [Example 183, N-(1-(5-(2-methoxybenzyl)octahydropyrrolo[3,4-c]pyrrole-2-carbonyl)-1H-pyrazol-4-yl)-N-methylacetamide] |
| 0 to 25% | ≥ 75% | 0 to 25% | 25 to 50% | – | – | CC(=O)N(C)c1cnn(C(=O)N2CCC3(CCN(Cc4ccccc4N4CCOCC4)C3)C2)c1 (stereo not shown) [Example 62, N-methyl-N-(1-(7-(2-morpholinobenzyl)-2,7-diazaspiro[4.4]nonane-2-carbonyl)-1H-pyrazol-4-yl)acetamide] |
| 0 to 25% | 25 to 50% | 0 to 25% | ≥ 75% | – | – | CC(=O)N(C)c1cnn(C(=O)N2CCC3(CCN(Cc4ccc(CN5CCOCC5)cc4)C3)C2)c1 (stereo not shown) [Example 231, N-methyl-N-(1-(7-(4-(morpholinomethyl)benzyl)-2,7-diazaspiro[4.4]nonane-2-carbonyl)-1H-pyrazol-4-yl)acetamide] |
| – | ≥ 75% | – | ≥ 75% | – | – | CS(=O)(=O)Nc1cnn(C(=O)N2CCN(Cc3ccc(-c4ccc(C(F)(F)F)nc4)cc3C(F)(F)F)CC2)c1 [Example 301, N-(1-(4-(2-(trifluoromethyl)-4-(6-(trifluoromethyl)pyridin-3-yl)benzyl)piperazine-1-carbonyl)-1H-pyrazol-4-yl)methanesulfonamide] |
| 50 to 75% | ≥ 75% | 0 to 25% | ≥ 75% | – | – | CC(=O)N(C)c1cnn(C(=O)N2CCC3(CCN(Cc4ccc(N5CCOCC5)cc4)C3)C2)c1 (stereo not shown) [Example 3, N-methyl-N-(1-(7-(4-morpholinobenzyl)-2,7-diazaspiro[4.4]nonane-2-carbonyl)-1H-pyrazol-4-yl)acetamide] |
| 0 to 25% | ≥ 75% | 0 to 25% | ≥ 75% | – | – | CC(=O)N(C)c1cnn(C(=O)N2CCC3(CCN(Cc4ccccc4N4CCCC4)C3)C2)c1 (stereo not shown) [Example 60, N-methyl-N-(1-(7-(2-(pyrrolidin-1-yl)benzyl)-2,7-diazaspiro[4.4]nonane-2-carbonyl)-1H-pyrazol-4-yl)acetamide] |
| ≥ 75% | ≥ 75% | 0 to 25% | ≥ 75% | – | – | CC(=O)N(C)c1cnn(C(=O)N2CCC3(CCN(Cc4cccc(F)c4)C3)C2)c1 (stereo not shown) [Example 79, N-(1-(7-(3-fluorobenzyl)-2,7-diazaspiro[4.4]nonane-2-carbonyl)-1H-pyrazol-4-yl)-N-methylacetamide] |
| 0 to 25% | ≥ 75% | 0 to 25% | ≥ 75% | – | – | COc1ccccc1CN1CCC2(CCN(C(=O)n3cc(N(C)C(C)=O)cn3)C2)C1 (stereo not shown) [Example 56, N-(1-(7-(2-methoxybenzyl)-2,7-diazaspiro[4.4]nonane-2-carbonyl)-1H-pyrazol-4-yl)-N-methylacetamide] |
| ≥ 75% | ≥ 75% | 0 to 25% | ≥ 75% | – | – | CC(=O)N(C)c1cnn(C(=O)N2C[C@H]3C[C@@H](NCc4cccc(Cl)c4)C[C@H]3C2)c1 [Example 134, N-(1-(cis-5-(3-chlorobenzylamino)octahydrocyclopenta[c]pyrrole-2-carbonyl)-1H-pyrazol-4-yl)-N-methylacetamide] |
| – | – | – | – | ≥ 75% | ≥ 75% | CS(=O)(=O)Nc1cnn(C(=O)N2CCC3(CCN(Cc4ccc(N5CCCC5)cc4C(F)(F)F)C3)C2)c1 (stereo not shown) [Example 285, N-(1-(7-(4-(pyrrolidin-1-yl)-2-(trifluoromethyl)benzyl)-2,7-diazaspiro[4.4]nonane-2-carbonyl)-1H-pyrazol-4-yl)methanesulfonamide] |
| 50 to 75% | ≥ 75% | 0 to 25% | ≥ 75% | – | – | CC(=O)N(C)c1cnn(C(=O)N2CCC3(CCN(Cc4ccc(C)cc4)C3)C2)c1 (stereo not shown) [Example 76, N-methyl-N-(1-(7-(4-methylbenzyl)-2,7-diazaspiro[4.4]nonane-2-carbonyl)-1H-pyrazol-4-yl)acetamide] |

Reference: patent publication US10323038B2, “Pyrazole compounds and methods of making and using same” (ABIDE THERAPEUTICS, INC., priority 2015, dated 2019)
